This is an account of results in patent US7601737B2, “Isotopically substituted proton pump inhibitors” (priority 2005, dated 2009).

Data set [1] deals with human cryopreserved hepatocytes.
Description: (§2) Following the evaluation of the metabolic clearance of the compounds according to the invention via P450 enzymes, the formation kinetics of the main metabolite identified in humans, i.e. M2 (5-(difluoromethoxy)-2-[[(3-methoxy-4-sulfate-2-pyridyl)-methyl]sulfinyl]-1H-benzimidazole) was determined. Because the generation of M2 involves the oxidation of the 4-methoxy-pyridyl group by CYP2C19 and subsequent conjugation with 3′-phosphoadenosine-5′-phosphosulfate (PAPS) by an unidentified sulphotransferase, human cryopreserved hepatocytes were used since both phase I and phase II enzymes are functional in this in vitro system.
(§3) M2 formation rate under these conditions was linear up to 60 min. The M2 formation rate was determined at nine different compound concentrations (0, 0.5, 1.0, 2.5, 5.0, 10.0, 25.0, 50.0 and 100 μMol/L) incubated in duplicate for 60 min at 37° C. M2 was quantified using LC-MS/MS. M2 isolated from human urine was used as an external standard. The concentration to reach the half-maximal formation rate (KM-value) and the maximal formation rate (Vmax) were obtained by non-linear regression analysis using the Michaelis-Menten equation. The intrinsic clearance (Clint) was obtained dividing Vmax over KM.
The nature of data set [2]: in vitro. The conditions noted are these: human, hepatocytes.
Description: as §2, §3
Data set [3] has as its system human cryopreserved hepatocytes. Nature of the data set: in vitro. The conditions noted are these: for % Σ Clint rac. Omeprazole: hepatocytes. The source says: (§1) 5-hydroxy-omeprazole was quantified using LC-MS/MS.
The nature of data set [4]: in vitro. The conditions noted are these: human, hepatocytes.
Description: as §1
This is another data set of the same source.

The mark [5] stands for this setting: Table 3, relative to rac. pantoprazole.
Where [6] appears, read: Table 2, relative to rac. pantoprazole.
Setting [7] is: Table 3, pooled human hepatocytes, M2 formation, Vmax over KM.

Where two headings read alike, the source gives them in different places.

For `COc1ccnc(C[S@+]([O-])c2nc3cc(OC(F)F)ccc3[n-]2)c1OC.COc1ccnc(C[S@+]([O-])c2nc3cc(OC(F)F)ccc3[n-]2)c1OC.O.O.O.[Na+].[Na+]` [(S)-pantoprazole Na 1.5 H2O, reference compound], in data set [1] (human, hepatocytes), the “% Σ Clint (S)-pantoprazole” value was determined as 100% and the “Intrinsic clearance (Clint)” value stood at 16.1 μl/min/10^6 cells.

As to `[2H]C([2H])([2H])Oc1ccnc(C[S@+]([O-])c2nc3cc(OC(F)F)ccc3[nH]2)c1OC.[Na]` [Example 36, (S)-5-Difluoromethoxy-2-[(3-methoxy-4-trideuteriomethoxy-2-pyridinyl)methylsulfinyl]-1H-benzimidazole sodium salt], the “% Σ Clint (S)-pantoprazole” value in data set [1] (Table 3, relative to (S)-pantoprazole) is given as 21%. The hepatocyte CLint (usually the rate of metabolic loss divided by the concentration) in the data set “in vitro [2]” amounted to 3.4 µL/min/1e6 cells.

For `O.O.O.[2H]C([2H])([2H])Oc1ccnc(C[S@@+]([O-])c2nc3cc(OC(F)F)ccc3[nH]2)c1OC.[Na]` [Example 30, (R)-5-Difluoromethoxy-2-[(3-methoxy-4-trideuteriomethoxy-2-pyridinyl)methylsulfinyl]-1H-benzimidazole sodium salt trihydrate], the “% Σ Clint (R)-pantoprazole” value in data set [1] (Table 2, relative to (R)-pantoprazole) was 21%.

For `[2H]C([2H])([2H])Oc1ccc2[nH]c([S+]([O-])Cc3ncc(C)c(OC([2H])([2H])[2H])c3C)nc2c1` (racemic) [Example 47, rac-5-Trideuteriomethoxy-2-[(3,5-dimethyl-4-trideuteriomethoxy-2-pyridinyl)methylsulfinyl]-1H-benzimidazole], the “5-hydroxy-omeprazole formation rate, reduction compared to non-deuterated omeprazole” value in data set [3] (human, 60 min) was “about 1.5 fold”. For the same compound, the “% Σ Clint rac. Omeprazole” value in data set [3] (human) is recorded as 69%. The same compound registered a hepatocyte CLint in the data set “in vitro [4]” of 1.4 µL/min/1e6 cells.

`[2H]C([2H])([2H])Oc1c(C)cnc(C[S+]([O-])c2nc3cc(OC)ccc3[nH]2)c1C` (racemic) [Example 48, rac-5-Methoxy-2-[(3,5-dimethyl-4-trideuteriomethoxy-2-pyridinyl)methylsulfinyl]-1H-benzimidazole]: in data set [3] (human, 60 min), the “5-hydroxy-omeprazole formation rate, reduction compared to non-deuterated omeprazole” value is “about 1.5 fold” and the “Reduction in the 5-hydroxy-omeprazole formation rate” value is listed as “Reduction in the 5-hydroxy-omeprazole formation rate was observed”. Further, in data set [3] (human), the “% Σ Clint rac. Omeprazole” value is given as 69%. The compound further came in with a hepatocyte CLint in “in vitro [4]” of 1.4 µL/min/1e6 cells.

On to `[2H]C([2H])([2H])Oc1ccnc(C[S@+]([O-])c2nc3cc(OC(F)F)ccc3[nH]2)c1OC` [Example 5, Sodium (S)-{[5-(difluoromethoxy)]-2-[(3-methoxy-4-trideuteriomethoxy-2-pyridinyl)methylsulphinyl]-1H-benzimidazolide} hydrate], for which the “% Σ Clint (S)-pantoprazole” value in data set [1] (Table 2, relative to (S)-pantoprazole) is 21%.

Turning to `COc1ccnc(C[S@@+]([O-])c2nc3cc(OC(F)F)ccc3[n-]2)c1OC.COc1ccnc(C[S@@+]([O-])c2nc3cc(OC(F)F)ccc3[n-]2)c1OC.O.O.O.[Na+].[Na+]` [(R)-pantoprazole Na 1.5 H2O, reference compound], in data set [1] (human, hepatocytes), the “% Σ Clint (R)-pantoprazole” value came out at 100% and the “Intrinsic clearance (Clint)” value was 25.7 μl/min/10^6 cells.

On to `O.[2H]C([2H])([2H])Oc1ccnc(C[S+]([O-])c2nc3cc(OC(F)F)ccc3[nH]2)c1OC.[Na]` (racemic) [Example 32, rac-5-Difluoromethoxy-2-[(3-methoxy-4-trideuteriomethoxy-2-pyridinyl)methylsulfinyl]-1H-benzimidazole sodium salt mono hydrate], for which the “% Σ Clint rac. Pantoprazole” value in data set [1] (setting [5]) stood at 18%. The hepatocyte CLint in the data set “in vitro [2]” is 5.1 µL/min/1e6 cells.

For the compound `[2H]C([2H])([2H])Oc1ccc2[nH]c([S+]([O-])Cc3ncc(C)c(OC)c3C)nc2c1` (racemic) [Example 46, rac-5-Trideuteriomethoxy-2-[(4-methoxy-3,5-dimethyl-2-pyridinyl)methylsulfinyl]-1H-benzimidazole], the “Reduction in the 5-hydroxy-omeprazole formation rate” value in data set [3] was “not found”. For the same compound, the “% Σ Clint rac. Omeprazole” value in data set [3] (human) was 107%. Further, the hepatocyte CLint in the data set “in vitro [4]” is 2.1 µL/min/1e6 cells.

`[2H]C([2H])([2H])Oc1ccnc(C[S@@+]([O-])c2nc3cc(OC(F)F)ccc3[nH]2)c1OC.[Na]` [Example 37, (R)-5-Difluoromethoxy-2-[(3-methoxy-4-trideuteriomethoxy-2-pyridinyl)methylsulfinyl]-1H-benzimidazole sodium salt]: in data set [1] (Table 3, relative to (R)-pantoprazole), the “% Σ Clint (R)-pantoprazole” value is 21%. Moreover, the hepatocyte CLint in the data set “in vitro [2]” stood at 5.5 µL/min/1e6 cells.

Consider `O.[2H]C([2H])Oc1ccnc(C[S+]([O-])c2nc3cc(OC(F)F)ccc3[nH]2)c1OC.[Na]` (racemic) [Example 24, rac-5-Difluoromethoxy-2-[(3-methoxy-4-dideuteriomethoxy-2-pyridinyl)methylsulfinyl]-1H-benzimidazole sodium salt mono hydrate], for which the “% Σ Clint rac. pantoprazole” value in data set [1] (setting [6]) is 48%. Also, the “Intrinsic clearance (Clint)” value in data set [1] (setting [7]) was found to be 13.5 μl/min/10^6 cells. Further, the “% Σ Clint rac. Pantoprazole” value in data set [1] (setting [5]) amounted to 48%. This compound yielded a hepatocyte CLint in the data set “in vitro [2]” of 13.5 µL/min/1e6 cells.

For `COc1ccnc(C[S+]([O-])c2nc3ccc(OC(F)F)cc3[nH]2)c1OC` (racemic) [rac. pantoprazole Na 1.5 H2O, 5-difluoromethoxy-2-[(3,4-dimethoxy-2-pyridinyl)methylsulphinyl]-1H-benzimidazole, reference compound], in data set [1] (human, hepatocytes), the “% Σ Clint rac. Pantoprazole” value was 100%, the “% Σ Clint rac. pantoprazole” value is on record as 100% and the “Intrinsic clearance (Clint)” value turned out to be 27.9 μl/min/10^6 cells. The hepatocyte CLint in “in vitro [2]” turned out to be 27.9 µL/min/1e6 cells.

For `COc1ccc2nc([S@@+]([O-])Cc3ncc(C)c(OC)c3C)[nH]c2c1` [(S)-omeprazole sodium, (S)-5-methoxy-2-[(4-methoxy-3,5-dimethyl-2-pyridinyl)methylsulphinyl]-1H-benzimidazole, reference compound], the “% Σ Clint rac. Omeprazole” value in data set [3] (human) is on record as 37%. Besides, in the data set “in vitro [4]”, the intrinsic clearance (hepatocyte CLint) turned out to be 0.7 µL/min/1e6 cells.

“Sodium (R/S)-{[5-(difluoromethoxy)]-2-[(3-methoxy-4-trideuteriomethoxy-2-pyridinyl)methylsulphinyl]-1H-benzimidazolide} hydrate [Example 6]”: the “Intrinsic clearance (Clint)” value in data set [1] (Table 2, pooled human hepatocytes, M2 formation, Vmax over KM) is listed as 5.1 μl/min/10^6 cells. The “% Σ Clint rac. pantoprazole” value in data set [1] (setting [6]) was found to be 20%. In data set [1] (series [1H], [2H1], [2H2], [2H3]), the “Effect of increasing number of [2H] atoms in the 4-methoxy-pyridyl position on M2 formation rates” value is listed as “decreased M2 formation rates”.

In the case of `O.[2H]COc1ccnc(C[S+]([O-])c2nc3cc(OC(F)F)ccc3[nH]2)c1OC.[Na]` (racemic) [Example 25, rac-5-Difluoromethoxy-2-[(3-methoxy-4-monodeuteriomethoxy-2-pyridinyl)methylsulfinyl]-1H-benzimidazole sodium salt mono hydrate], in data set [1] (setting [6]), the “% Σ Clint rac. pantoprazole” value is reported as 63%. Further, the “Intrinsic clearance (Clint)” value in data set [1] (setting [7]) is listed as 17.7 μl/min/10^6 cells. Also, the “% Σ Clint rac. Pantoprazole” value in data set [1] (setting [5]) worked out at 63%. Besides, the hepatocyte CLint in “in vitro [2]” worked out at 17.7 µL/min/1e6 cells.

With `[2H]C([2H])([2H])Oc1c(OC)ccnc1C[S+]([O-])c1nc2cc(OC(F)F)ccc2[nH]1` (racemic) [Example 22, rac-5-Difluoromethoxy-2-[(4-methoxy-3-trideuteriomethoxy-2-pyridinyl)methylsulfinyl]-1H-benzimidazole], in data set [1] (human, 60 min), the “Substrate concentrations at which formation of M2 appeared to be inhibited” value is given as “above 100 μM”. In data set [1] (human, hepatocytes), the “% Σ Clint rac. Pantoprazole” value stood at 79%, the “% Σ Clint rac. pantoprazole” value came to 79% and the “Intrinsic clearance (Clint)” value is recorded as 22.0 μl/min/10^6 cells. The hepatocyte CLint in “in vitro [2]” turned out to be 22 µL/min/1e6 cells.
